Experimental data as given in publication PMC9030254, “Target Hopping from Protein Kinases to PXR: Identification of Small-Molecule Protein Kinase Inhibitors as Selective Modulators of Pregnane X Receptor from TüKIC Library” (Cells, 2022).

Columns and labels:
Experiment in all cases: Kinase profiling
Assay type in all cases: biochemical
[1] = target: T1, MINK1 (Homo sapiens, UniProt Q8N4C8)
T1 construct: purchased ProQinase (Freiburg, Germany)
Procedure: (§1) The analysis was performed by ProQinase (Freiburg, Germany).

[2] = target: T2, PYK2 (Homo sapiens, UniProt Q14289)
T2 construct: purchased ProQinase (Freiburg, Germany)
Procedure: as §1

[3] = target: T3, BMPR1A (Homo sapiens, UniProt P36894)
T3 construct: purchased ProQinase (Freiburg, Germany)
Procedure: as §1

[4] = target: T4, ERK2 (Homo sapiens, UniProt P28482)
T4 construct: purchased ProQinase (Freiburg, Germany)
Procedure: as §1

[5] = target: T5, CDK9/CycT1 (Homo sapiens, UniProt P50750)
T5 construct: purchased ProQinase (Freiburg, Germany)
Procedure: as §1

[6] = target: T6, MATK (Homo sapiens, UniProt P42679)
T6 construct: purchased ProQinase (Freiburg, Germany)
T6 sequence (P42679 1-507): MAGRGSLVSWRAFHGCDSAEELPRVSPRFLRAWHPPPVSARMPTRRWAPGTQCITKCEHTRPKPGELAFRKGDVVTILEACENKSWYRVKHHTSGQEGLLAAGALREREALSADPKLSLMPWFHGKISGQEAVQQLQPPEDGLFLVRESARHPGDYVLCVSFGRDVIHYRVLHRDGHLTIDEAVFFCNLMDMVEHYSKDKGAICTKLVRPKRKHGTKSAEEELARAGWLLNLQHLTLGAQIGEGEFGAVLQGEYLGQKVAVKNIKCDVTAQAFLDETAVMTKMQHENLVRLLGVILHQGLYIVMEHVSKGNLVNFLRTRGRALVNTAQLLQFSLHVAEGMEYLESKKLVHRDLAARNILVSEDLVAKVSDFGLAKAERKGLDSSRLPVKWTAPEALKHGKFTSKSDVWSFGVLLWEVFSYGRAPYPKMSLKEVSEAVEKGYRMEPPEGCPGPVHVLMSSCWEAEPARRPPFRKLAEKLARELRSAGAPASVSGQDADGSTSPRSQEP
Procedure: as §1

[7] = target: T7, IKKbeta (Homo sapiens, UniProt O14920)
T7 construct: purchased ProQinase (Freiburg, Germany)
T7 sequence (O14920 1-756): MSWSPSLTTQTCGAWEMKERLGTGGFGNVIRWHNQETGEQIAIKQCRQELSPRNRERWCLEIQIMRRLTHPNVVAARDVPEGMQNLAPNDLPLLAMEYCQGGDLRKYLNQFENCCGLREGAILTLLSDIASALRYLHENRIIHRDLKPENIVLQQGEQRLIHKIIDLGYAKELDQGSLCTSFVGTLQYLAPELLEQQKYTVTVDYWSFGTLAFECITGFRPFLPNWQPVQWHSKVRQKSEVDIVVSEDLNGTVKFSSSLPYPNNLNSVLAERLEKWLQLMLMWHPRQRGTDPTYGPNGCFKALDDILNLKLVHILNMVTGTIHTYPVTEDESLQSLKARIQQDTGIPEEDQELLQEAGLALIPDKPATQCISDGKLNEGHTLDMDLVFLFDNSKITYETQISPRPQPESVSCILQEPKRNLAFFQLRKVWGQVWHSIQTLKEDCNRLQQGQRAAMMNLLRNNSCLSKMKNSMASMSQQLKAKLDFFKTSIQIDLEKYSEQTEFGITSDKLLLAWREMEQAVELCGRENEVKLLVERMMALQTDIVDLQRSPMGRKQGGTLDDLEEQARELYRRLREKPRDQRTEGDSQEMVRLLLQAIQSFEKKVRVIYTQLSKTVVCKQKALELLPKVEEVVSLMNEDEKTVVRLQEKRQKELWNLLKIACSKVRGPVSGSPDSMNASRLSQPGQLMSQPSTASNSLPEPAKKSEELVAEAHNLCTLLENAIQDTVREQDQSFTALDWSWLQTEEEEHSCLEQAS
Procedure: as §1

[8] = target: T8, MAPKAPK3 (Homo sapiens, UniProt Q16644)
T8 construct: purchased ProQinase (Freiburg, Germany)
Procedure: as §1

[9] = target: T9, WNK1 (Homo sapiens, UniProt Q9H4A3)
T9 construct: purchased ProQinase (Freiburg, Germany)
Procedure: as §1

[10] = target: T10, LIMK2 (Homo sapiens, UniProt P53671)
T10 construct: purchased ProQinase (Freiburg, Germany)
Procedure: as §1

[11] = target: T11, PLK1 (Homo sapiens, UniProt P53350)
T11 construct: purchased ProQinase (Freiburg, Germany)
Procedure: as §1

[12] = target: T12, ACVR1B (Homo sapiens, UniProt P36896)
T12 construct: purchased ProQinase (Freiburg, Germany)
T12 sequence (P36896 24-505): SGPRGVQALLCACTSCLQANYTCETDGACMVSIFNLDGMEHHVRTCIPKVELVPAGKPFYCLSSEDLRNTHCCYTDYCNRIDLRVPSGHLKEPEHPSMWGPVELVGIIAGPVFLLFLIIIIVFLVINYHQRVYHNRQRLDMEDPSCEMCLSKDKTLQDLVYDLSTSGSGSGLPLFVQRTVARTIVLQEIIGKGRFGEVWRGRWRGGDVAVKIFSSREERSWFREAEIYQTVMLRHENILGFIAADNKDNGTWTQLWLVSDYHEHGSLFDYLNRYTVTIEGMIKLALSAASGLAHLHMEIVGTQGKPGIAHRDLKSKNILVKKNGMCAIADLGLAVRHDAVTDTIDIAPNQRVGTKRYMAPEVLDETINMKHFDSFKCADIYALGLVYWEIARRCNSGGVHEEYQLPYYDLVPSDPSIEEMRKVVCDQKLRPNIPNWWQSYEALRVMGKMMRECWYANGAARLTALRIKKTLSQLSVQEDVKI
Procedure: as §1

[13] = target: T13, CK1delta (Homo sapiens, UniProt P48730)
T13 construct: purchased ProQinase (Freiburg, Germany)
Procedure: as §1

[14] = target: T14, CK1gamma3 (Homo sapiens, UniProt Q9Y6M4)
T14 construct: purchased ProQinase (Freiburg, Germany)
Procedure: as §1

[15] = target: T15, LYN (Homo sapiens, UniProt P07948)
T15 construct: purchased ProQinase (Freiburg, Germany)
Procedure: as §1

[16] = target: T16, TRKC (Homo sapiens, UniProt Q16288)
T16 construct: purchased ProQinase (Freiburg, Germany)
Procedure: as §1

T16 sequence (Q16288 32-839): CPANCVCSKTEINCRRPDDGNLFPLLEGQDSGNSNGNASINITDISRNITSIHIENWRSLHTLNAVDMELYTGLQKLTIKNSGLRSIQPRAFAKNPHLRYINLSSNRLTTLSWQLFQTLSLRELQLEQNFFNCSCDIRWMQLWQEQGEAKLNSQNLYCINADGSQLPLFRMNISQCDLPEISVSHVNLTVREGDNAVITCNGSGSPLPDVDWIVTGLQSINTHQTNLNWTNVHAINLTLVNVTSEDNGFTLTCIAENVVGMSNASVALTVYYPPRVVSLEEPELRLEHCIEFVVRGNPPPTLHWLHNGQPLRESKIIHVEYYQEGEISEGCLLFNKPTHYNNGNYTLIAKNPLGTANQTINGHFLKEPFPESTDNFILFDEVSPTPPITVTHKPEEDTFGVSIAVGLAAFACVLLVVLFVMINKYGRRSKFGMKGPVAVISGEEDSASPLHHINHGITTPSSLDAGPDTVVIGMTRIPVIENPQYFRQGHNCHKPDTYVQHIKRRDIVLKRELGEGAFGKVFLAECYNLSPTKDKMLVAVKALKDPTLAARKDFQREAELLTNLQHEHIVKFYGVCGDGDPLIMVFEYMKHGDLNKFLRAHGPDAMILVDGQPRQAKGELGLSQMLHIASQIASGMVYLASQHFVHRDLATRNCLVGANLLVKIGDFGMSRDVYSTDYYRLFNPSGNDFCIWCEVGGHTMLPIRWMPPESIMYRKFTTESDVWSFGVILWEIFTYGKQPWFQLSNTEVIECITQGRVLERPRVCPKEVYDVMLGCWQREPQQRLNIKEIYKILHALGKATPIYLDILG
T11 sequence (P53350 whole entry): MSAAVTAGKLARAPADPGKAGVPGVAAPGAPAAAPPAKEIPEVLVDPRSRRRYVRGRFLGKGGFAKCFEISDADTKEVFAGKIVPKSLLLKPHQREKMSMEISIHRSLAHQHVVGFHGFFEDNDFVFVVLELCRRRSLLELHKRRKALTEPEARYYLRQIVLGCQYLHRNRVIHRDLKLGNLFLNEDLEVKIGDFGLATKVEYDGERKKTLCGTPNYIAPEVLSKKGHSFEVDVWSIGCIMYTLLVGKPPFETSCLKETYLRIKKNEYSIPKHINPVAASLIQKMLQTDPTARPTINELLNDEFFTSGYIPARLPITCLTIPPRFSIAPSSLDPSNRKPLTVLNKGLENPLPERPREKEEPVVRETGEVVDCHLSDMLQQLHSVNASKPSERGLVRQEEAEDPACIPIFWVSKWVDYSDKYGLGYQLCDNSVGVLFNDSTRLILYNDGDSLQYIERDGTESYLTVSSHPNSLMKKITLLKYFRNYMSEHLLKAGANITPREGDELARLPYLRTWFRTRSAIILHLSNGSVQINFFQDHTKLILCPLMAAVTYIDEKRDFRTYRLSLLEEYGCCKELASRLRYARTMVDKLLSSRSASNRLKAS
T10 sequence (P53671 whole entry): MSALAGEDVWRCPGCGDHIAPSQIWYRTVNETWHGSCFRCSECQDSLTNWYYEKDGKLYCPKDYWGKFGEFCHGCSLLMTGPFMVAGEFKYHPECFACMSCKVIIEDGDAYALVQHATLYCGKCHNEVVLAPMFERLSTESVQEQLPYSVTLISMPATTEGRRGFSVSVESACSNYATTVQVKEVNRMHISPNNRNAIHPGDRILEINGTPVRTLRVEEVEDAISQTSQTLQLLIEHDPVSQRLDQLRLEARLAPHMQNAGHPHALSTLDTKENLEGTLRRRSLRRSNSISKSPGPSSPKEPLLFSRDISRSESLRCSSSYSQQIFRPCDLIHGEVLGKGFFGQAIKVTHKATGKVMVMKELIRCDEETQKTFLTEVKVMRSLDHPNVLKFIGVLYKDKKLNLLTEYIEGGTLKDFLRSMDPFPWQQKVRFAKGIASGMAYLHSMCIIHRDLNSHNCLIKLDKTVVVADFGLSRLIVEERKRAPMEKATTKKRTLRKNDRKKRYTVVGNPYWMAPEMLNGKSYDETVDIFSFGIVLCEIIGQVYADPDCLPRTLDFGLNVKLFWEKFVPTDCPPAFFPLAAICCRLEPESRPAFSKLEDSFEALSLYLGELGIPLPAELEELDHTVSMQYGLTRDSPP
T9 sequence (Q9H4A3 whole entry): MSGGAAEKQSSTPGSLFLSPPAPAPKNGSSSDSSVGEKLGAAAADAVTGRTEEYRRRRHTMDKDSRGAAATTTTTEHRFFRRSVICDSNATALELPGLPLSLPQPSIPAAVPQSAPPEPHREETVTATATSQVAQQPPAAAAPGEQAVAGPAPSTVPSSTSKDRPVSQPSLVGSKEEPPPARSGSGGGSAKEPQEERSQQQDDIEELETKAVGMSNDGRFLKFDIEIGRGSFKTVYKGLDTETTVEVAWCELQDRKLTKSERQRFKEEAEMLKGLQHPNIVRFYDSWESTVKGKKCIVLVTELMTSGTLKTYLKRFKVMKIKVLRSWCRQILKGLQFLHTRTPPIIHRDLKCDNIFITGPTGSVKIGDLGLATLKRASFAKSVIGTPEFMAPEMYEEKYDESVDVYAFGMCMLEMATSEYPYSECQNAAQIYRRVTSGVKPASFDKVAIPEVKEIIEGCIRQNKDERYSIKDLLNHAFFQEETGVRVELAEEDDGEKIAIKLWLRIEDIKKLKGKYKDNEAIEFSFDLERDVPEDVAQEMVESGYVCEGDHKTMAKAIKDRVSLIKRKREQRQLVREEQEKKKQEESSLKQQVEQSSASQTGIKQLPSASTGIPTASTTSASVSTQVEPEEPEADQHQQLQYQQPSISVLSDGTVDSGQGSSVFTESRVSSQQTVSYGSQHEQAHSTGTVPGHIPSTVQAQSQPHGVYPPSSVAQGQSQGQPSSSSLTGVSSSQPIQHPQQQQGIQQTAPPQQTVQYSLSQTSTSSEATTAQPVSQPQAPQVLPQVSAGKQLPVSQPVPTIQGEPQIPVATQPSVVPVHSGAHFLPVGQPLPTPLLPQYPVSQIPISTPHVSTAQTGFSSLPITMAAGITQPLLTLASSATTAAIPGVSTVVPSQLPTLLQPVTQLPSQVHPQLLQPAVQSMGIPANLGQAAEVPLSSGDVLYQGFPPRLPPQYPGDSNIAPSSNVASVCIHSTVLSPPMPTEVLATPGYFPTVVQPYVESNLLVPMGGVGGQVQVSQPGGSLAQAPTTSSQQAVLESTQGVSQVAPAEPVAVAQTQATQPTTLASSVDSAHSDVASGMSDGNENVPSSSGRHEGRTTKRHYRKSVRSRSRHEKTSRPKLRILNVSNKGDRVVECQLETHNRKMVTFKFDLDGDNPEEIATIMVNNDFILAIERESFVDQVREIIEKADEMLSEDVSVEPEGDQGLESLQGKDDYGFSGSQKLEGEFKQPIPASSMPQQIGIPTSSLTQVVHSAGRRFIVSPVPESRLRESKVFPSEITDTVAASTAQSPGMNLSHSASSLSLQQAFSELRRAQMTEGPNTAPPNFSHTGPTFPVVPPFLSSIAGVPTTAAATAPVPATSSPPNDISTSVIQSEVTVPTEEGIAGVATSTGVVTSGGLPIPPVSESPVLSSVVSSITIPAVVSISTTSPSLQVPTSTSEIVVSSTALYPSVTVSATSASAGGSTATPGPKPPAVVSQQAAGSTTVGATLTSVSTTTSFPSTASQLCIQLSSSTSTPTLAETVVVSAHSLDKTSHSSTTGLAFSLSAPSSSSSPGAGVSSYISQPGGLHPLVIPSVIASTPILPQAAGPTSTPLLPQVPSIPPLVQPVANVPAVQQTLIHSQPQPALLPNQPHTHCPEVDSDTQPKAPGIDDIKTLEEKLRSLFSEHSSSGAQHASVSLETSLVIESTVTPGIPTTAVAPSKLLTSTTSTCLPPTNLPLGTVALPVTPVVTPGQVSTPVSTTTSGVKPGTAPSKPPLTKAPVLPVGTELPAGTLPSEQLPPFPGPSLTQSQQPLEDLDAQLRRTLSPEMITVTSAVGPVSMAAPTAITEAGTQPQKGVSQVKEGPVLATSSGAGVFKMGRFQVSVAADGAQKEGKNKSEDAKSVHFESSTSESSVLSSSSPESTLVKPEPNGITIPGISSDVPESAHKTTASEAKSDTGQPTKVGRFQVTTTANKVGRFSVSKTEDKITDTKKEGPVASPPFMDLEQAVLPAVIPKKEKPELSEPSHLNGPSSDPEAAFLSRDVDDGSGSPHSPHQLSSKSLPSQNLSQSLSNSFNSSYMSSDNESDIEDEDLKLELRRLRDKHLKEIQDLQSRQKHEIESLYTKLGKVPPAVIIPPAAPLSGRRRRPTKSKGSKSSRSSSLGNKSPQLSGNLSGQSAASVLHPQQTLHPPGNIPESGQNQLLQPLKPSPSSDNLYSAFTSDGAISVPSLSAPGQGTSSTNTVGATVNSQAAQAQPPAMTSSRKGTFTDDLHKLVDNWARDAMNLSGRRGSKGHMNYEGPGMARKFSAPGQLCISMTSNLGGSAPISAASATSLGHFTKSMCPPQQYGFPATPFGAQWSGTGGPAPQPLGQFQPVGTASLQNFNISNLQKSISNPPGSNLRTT
T8 sequence (Q16644 whole entry): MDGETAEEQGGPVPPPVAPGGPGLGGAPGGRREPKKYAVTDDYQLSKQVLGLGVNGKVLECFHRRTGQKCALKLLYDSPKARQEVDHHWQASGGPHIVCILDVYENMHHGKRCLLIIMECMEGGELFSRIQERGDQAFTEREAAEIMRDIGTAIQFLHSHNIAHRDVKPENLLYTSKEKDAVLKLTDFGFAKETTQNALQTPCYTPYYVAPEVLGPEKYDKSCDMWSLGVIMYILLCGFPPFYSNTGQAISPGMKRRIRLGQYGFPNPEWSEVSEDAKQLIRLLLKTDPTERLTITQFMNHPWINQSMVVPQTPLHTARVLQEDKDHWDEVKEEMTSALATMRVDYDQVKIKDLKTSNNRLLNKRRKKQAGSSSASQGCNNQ

Row | SMILES | Residual activity ([1]; 1.0E-05 M) | Residual activity ([1]; 1.0E-06 M) | Residual activity ([2]; 1.0E-05 M) | Residual activity ([2]; 1.0E-06 M) | Residual activity ([3]; 1.0E-05 M) | Residual activity ([3]; 1.0E-06 M) | Residual activity ([4]; 1.0E-05 M) | Residual activity ([4]; 1.0E-06 M) | Residual activity ([5]; 1.0E-05 M) | Residual activity ([5]; 1.0E-06 M) | Residual activity ([6]; 1.0E-05 M) | Residual activity ([6]; 1.0E-06 M) | Residual activity ([7]; 1.0E-05 M) | Residual activity ([7]; 1.0E-06 M) | Residual activity ([8]; 1.0E-05 M) | Residual activity ([8]; 1.0E-06 M) | Residual activity ([9]; 1.0E-05 M) | Residual activity ([9]; 1.0E-06 M) | Residual activity ([10]; 1.0E-05 M) | Residual activity ([10]; 1.0E-06 M) | other results
1 | O=C(Nc1ccc(F)c(Nc2ccc3c(c2)CCCCC3=O)c1)c1cccc(F)c1 [Compound 109] | 57 % of control | 86 % of control | 80 % of control | 87 % of control | 88 % of control | 92 % of control | 93 % of control | 95 % of control | 93 % of control | 92 % of control | 95 % of control | 94 % of control | 79 % of control | 84 % of control | 65 % of control | 98 % of control | 94 % of control | 93 % of control | 93 % of control | 98 % of control | Residual activity ([11]; 1.0E-05 M): 96 % of control; Residual activity ([11]; 1.0E-06 M): 94 % of control; Residual activity ([12]; 1.0E-05 M): 87 % of control; Residual activity ([12]; 1.0E-06 M): 98 % of control; inhibition at 1 µM ([13]; 1 µM, read-out: inhibition of CK1-δ): ≥ 50%; inhibition at 10 µM ([13]; 10 µM, read-out: inhibition of CK1-δ): ≥ 50%; Residual activity ([13]; 1.0E-05 M): 15 % of control; Residual activity ([13]; 1.0E-06 M): 23 % of control; inhibition at 10 µM ([14]; 10 µM, read-out: inhibition of CK1-γ3): ≥ 50%; Residual activity ([14]; 1.0E-05 M): 32 % of control; Residual activity ([14]; 1.0E-06 M): 79 % of control; Residual activity ([15]; 1.0E-05 M): 88 % of control; Residual activity ([15]; 1.0E-06 M): 104 % of control; Residual activity ([16]; 1.0E-05 M): 97 % of control; Residual activity ([16]; 1.0E-06 M): 112 % of control
2 | O=C(Cc1ccccc1)Nc1ccc(F)c(Nc2ccc3c(c2)CCCCC3=O)c1 [Compound 100] | 73 % of control | 89 % of control | 79 % of control | 108 % of control | 82 % of control | 101 % of control | 90 % of control | 101 % of control | 89 % of control | 95 % of control | 86 % of control | 101 % of control | 99 % of control | 110 % of control | 50 % of control | 109 % of control | 97 % of control | 99 % of control | 82 % of control | 95 % of control | inhibition at 10 µM ([8]; 10 µM): ≥ 50%; Residual activity ([11]; 1.0E-05 M): 90 % of control; Residual activity ([11]; 1.0E-06 M): 103 % of control; Residual activity ([12]; 1.0E-05 M): 90 % of control; Residual activity ([12]; 1.0E-06 M): 92 % of control; Residual activity ([13]; 1.0E-05 M): 106 % of control; Residual activity ([13]; 1.0E-06 M): 110 % of control; Residual activity ([14]; 1.0E-05 M): 105 % of control; Residual activity ([14]; 1.0E-06 M): 101 % of control; Residual activity ([15]; 1.0E-05 M): 95 % of control; Residual activity ([15]; 1.0E-06 M): 96 % of control; Residual activity ([16]; 1.0E-05 M): 89 % of control; Residual activity ([16]; 1.0E-06 M): 109 % of control
